Reference: PubChem BioAssay AID248 (DTP/NCI, 2004)
“And” between values parts separate entries of the source, which are not always exact repeats. Identical values can stand only once. Toxic doses and inconclusive results are not listed.

Test system: L1210 leukemia ip in BDF1 mice, survival T/C
Experiment: NCI In Vivo Anticancer Drug Screen. Data for tumor model L1210 Leukemia (intraperitoneal) in B6D2F1 (BDF1) mice
Conditions: endpoint: mean survival time, higher = longer survival
Method in brief: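 Mice bearing the transplanted tumor received compound or vehicle. Survival of the treated group was divided by that of the vehicle-treated control group to give the ratio.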

[1] = dose: 100.0 mg/kg/injection, schedule: Q01DX009 (ip), vehicle: Klucel (hydroxypropylcellulose) (HPC)
[2] = dose: 200.0 mg/kg/injection, schedule: Q01DX009 (ip), vehicle: Klucel (hydroxypropylcellulose) (HPC)
[3] = dose: 400.0 mg/kg/injection, schedule: Q01DX009 (ip), vehicle: Klucel (hydroxypropylcellulose) (HPC)
[4] = dose: 50.0 mg/kg/injection, schedule: Q01DX009 (ip), vehicle: saline
[5] = dose: 100.0 mg/kg/injection, schedule: Q01DX009 (ip), vehicle: saline
[6] = dose: 100.0 mg/kg/injection, schedule: Q04DX003 (ip), vehicle: saline
[7] = dose: 100.0 mg/kg/injection, schedule: Q04DX002 (ip), vehicle: saline
[8] = dose: 200.0 mg/kg/injection, schedule: Q04DX002 (ip), vehicle: saline
[9] = dose: 400.0 mg/kg/injection, schedule: Q04DX002 (ip), vehicle: saline
[10] = dose: 100.0 mg/kg/injection, schedule: Q01DX009 (ip), vehicle: saline with Tween-80
[11] = dose: 200.0 mg/kg/injection, schedule: Q01DX009 (ip), vehicle: saline with Tween-80
[12] = dose: 400.0 mg/kg/injection, schedule: Q01DX009 (ip), vehicle: saline with Tween-80
[13] = dose: 100.0 mg/kg/injection, schedule: Q04DX003 (ip), vehicle: Klucel (hydroxypropylcellulose) (HPC)
[14] = dose: 200.0 mg/kg/injection, schedule: Q04DX003 (ip), vehicle: Klucel (hydroxypropylcellulose) (HPC)
[15] = dose: 100.0 mg/kg/injection, schedule: Q01DX001 (ip), vehicle: carboxymethylcellulose (CMC)
[16] = dose: 100.0 mg/kg/injection, schedule: Q04DX002 (ip), vehicle: Klucel (hydroxypropylcellulose) (HPC)
[17] = dose: 200.0 mg/kg/injection, schedule: Q01DX001 (ip), vehicle: carboxymethylcellulose (CMC)
[18] = dose: 200.0 mg/kg/injection, schedule: Q04DX002 (ip), vehicle: Klucel (hydroxypropylcellulose) (HPC)
[19] = dose: 100.0 mg/kg/injection, schedule: Q01DX001 (ip), vehicle: saline
[20] = dose: 200.0 mg/kg/injection, schedule: Q01DX001 (ip), vehicle: saline
[21] = dose: 400.0 mg/kg/injection, schedule: Q01DX001 (ip), vehicle: saline
[22] = dose: 100.0 mg/kg/injection, schedule: Q04DX003 (ip), vehicle: saline with Tween-80
[23] = dose: 200.0 mg/kg/injection, schedule: Q04DX003 (ip), vehicle: saline with Tween-80
[24] = dose: 400.0 mg/kg/injection, schedule: Q04DX003 (ip), vehicle: saline with Tween-80
[25] = dose: 50.0 mg/kg/injection, schedule: Q01DX001 (ip), vehicle: carboxymethylcellulose (CMC)
[26] = dose: 400.0 mg/kg/injection, schedule: Q01DX001 (ip), vehicle: carboxymethylcellulose (CMC)

COc1cc2c(c(OC)c1OC)-c1ccc(SC)c(=O)cc1C(NC1OC(CO)C(O)C(O)C1O)CC2 (stereo not drawn)
T/C (dose: 12.5 mg/kg/injection, schedule: Q01DX005 (ip), vehicle: saline): 100 % of control
T/C (dose: 25.0 mg/kg/injection, schedule: Q01DX005 (ip), vehicle: saline): 100 % of control
T/C (dose: 50.0 mg/kg/injection, schedule: Q01DX005 (ip), vehicle: saline): 112 % of control and 119 % of control
T/C (dose: 100.0 mg/kg/injection, schedule: Q01DX005 (ip), vehicle: saline): 116 % of control

COc1ccccc1C(=O)N/N=C/c1ccncc1
T/C [1]: 94 % of control
T/C [2]: 94 % of control
T/C [3]: 97 % of control

N#Cc1cnc2nc(N)nc(N)c2c1
T/C [4]: 95 % of control and 105 % of control
T/C [5]: 95 % of control and 91 % of control
T/C [6]: 95 % of control
T/C (dose: 200.0 mg/kg/injection, schedule: Q01DX009 (ip), vehicle: saline): 95 % of control and 98 % of control and 90 % of control
T/C (dose: 200.0 mg/kg/injection, schedule: Q04DX003 (ip), vehicle: saline): 106 % of control

CCCCOCCOCCOC(C)Oc1ccc(C(=O)OC)cc1 (stereo not drawn)
T/C [7]: 92 % of control
T/C [8]: 99 % of control
T/C [9]: 101 % of control

COC(=O)CCNc1ccccc1
T/C [10]: 108 % of control
T/C [11]: 100 % of control
T/C [12]: 102 % of control

N#CC1(NC(Cc2ccccc2)c2ccccc2)CCCCCCCCCCC1 (stereo not drawn)
T/C (dose: 100.0 mg/kg/injection, schedule: Q04DX002 (ip), vehicle: saline with Tween-80): 101 % of control
T/C (dose: 200.0 mg/kg/injection, schedule: Q04DX002 (ip), vehicle: saline with Tween-80): 94 % of control
T/C (dose: 400.0 mg/kg/injection, schedule: Q04DX002 (ip), vehicle: saline with Tween-80): 97 % of control

COc1cc2c(cc1OC)C(=O)C(C(=O)c1ccccc1)C2 (stereo not drawn)
T/C [13]: 89 % of control
T/C [14]: 109 % of control
T/C (dose: 400.0 mg/kg/injection, schedule: Q04DX003 (ip), vehicle: Klucel (hydroxypropylcellulose) (HPC)): 94 % of control

CCCCNC(=O)OCc1cnc(C)n1Cc1ccccc1
T/C (dose: 25.0 mg/kg/injection, schedule: Q01DX009 (ip), vehicle: other): 93 % of control and 107 % of control
T/C [15]: 104 % of control
T/C [16]: 94 % of control
T/C (dose: 100.0 mg/kg/injection, schedule: Q04DX002 (ip), vehicle: other): 96 % of control and 105 % of control
T/C [17]: 108 % of control
T/C [18]: 98 % of control
T/C (dose: 200.0 mg/kg/injection, schedule: Q04DX002 (ip), vehicle: other): 93 % of control and 86 % of control
T/C (dose: 400.0 mg/kg/injection, schedule: Q04DX002 (ip), vehicle: Klucel (hydroxypropylcellulose) (HPC)): 94 % of control

CC1CCCC(C)N1C(=O)Nc1cccc(F)c1 (stereo not drawn)
T/C [1]: 99 % of control
T/C [2]: 101 % of control
T/C [3]: 94 % of control

COc1ccc(C=NC2C(OC(C)=O)OC(COC(C)=O)C(OC(C)=O)C2OC(C)=O)cc1 (stereo not drawn)
T/C [19]: 98 % of control
T/C [20]: 98 % of control
T/C [21]: 98 % of control

O=c1cc(-c2ccccc2)nc2ccccn12
T/C (dose: 100.0 mg/kg/injection, schedule: Q01DX001 (ip), vehicle: saline with Tween-80): 101 % of control
T/C (dose: 200.0 mg/kg/injection, schedule: Q01DX001 (ip), vehicle: saline with Tween-80): 101 % of control
T/C (dose: 400.0 mg/kg/injection, schedule: Q01DX001 (ip), vehicle: saline with Tween-80): 95 % of control

COC(=O)C(C)NC(=O)Cc1ccccc1 (stereo not drawn)
T/C [10]: 94 % of control
T/C [22]: 98 % of control
T/C [11]: 92 % of control
T/C [23]: 101 % of control
T/C [12]: 92 % of control
T/C [24]: 97 % of control

O=[N+]([O-])c1cccc(OCCCOc2cccc([N+](=O)[O-])c2)c1
T/C [19]: 103 % of control
T/C [20]: 102 % of control
T/C [21]: 100 % of control

Fc1cc(N(CCCl)CCCl)ccc1CNCCCNCc1ccc(N(CCCl)CCCl)cc1F
T/C [25]: 93 % of control

CN1C(=O)NC(C)(CCOCc2ccccc2)C1=O (stereo not drawn)
T/C [25]: 96 % of control
T/C [15]: 107 % of control
T/C [17]: 100 % of control
T/C [26]: 100 % of control

CCCCOC(=O)C(C)OC(=O)Nc1cccc(Cl)c1 (stereo not drawn)
T/C [10]: 93 % of control
T/C [11]: 95 % of control
T/C [12]: 90 % of control

CCN(CC)CCOC(=O)c1cc2ccccc2s1
T/C [19]: 94 % of control
T/C [20]: 102 % of control
T/C [21]: 96 % of control

c1cc[c]([Sn]([c]2ccccc2)([c]2ccccc2)[n]2ccnc2)cc1
T/C (dose: 5.0 mg/kg/injection, schedule: Q01DX001 (ip), vehicle: other): 95 % of control
T/C (dose: 10.0 mg/kg/injection, schedule: Q01DX001 (ip), vehicle: other): 108 % of control

CNC(C#N)Cc1ccccc1 (stereo not drawn)
T/C (dose: 2.5 mg/kg/injection, schedule: Q01DX009 (ip), vehicle: saline): 96 % of control
T/C (dose: 5.0 mg/kg/injection, schedule: Q01DX009 (ip), vehicle: saline): 98 % of control
T/C (dose: 10.0 mg/kg/injection, schedule: Q01DX009 (ip), vehicle: saline): 104 % of control
T/C (dose: 20.0 mg/kg/injection, schedule: Q01DX009 (ip), vehicle: saline): 101 % of control

CC(=O)OC1CC2CCC1C2Br (stereo not drawn)
T/C [15]: 95 % of control
T/C [17]: 93 % of control
T/C [26]: 90 % of control

CCCCCCCCP(=O)(N1CC1C)N1CC1C (stereo not drawn)
T/C (dose: 25.0 mg/kg/injection, schedule: Q01DX009 (ip), vehicle: saline): 98 % of control
T/C [4]: 104 % of control
T/C [5]: 98 % of control
T/C [6]: 91 % of control

Cc1cc(N)ccc1S(=O)(=O)F
T/C [22]: 103 % of control
T/C [23]: 103 % of control
T/C [24]: 100 % of control

CC(=O)c1ccc(C(=O)NCCCc2c(C)nc(N)[nH]c2=O)cc1
T/C [22]: 95 % of control
T/C [23]: 90 % of control
T/C [24]: 90 % of control

O=C(O)CCSSCCC(=O)O
T/C (dose: 50.0 mg/kg/injection, schedule: Q04DX003 (ip), vehicle: Klucel (hydroxypropylcellulose) (HPC)): 103 % of control
T/C [1]: 95 % of control
T/C [13]: 86 % of control
T/C [2]: 87 % of control
T/C [14]: 86 % of control

CCCCc1cccc2c1OCO2
T/C [19]: 103 % of control
T/C [20]: 103 % of control

CC1CCC(C(=O)O)ON1 (stereo not drawn)
T/C [7]: 114 % of control
T/C [8]: 95 % of control
T/C [9]: 100 % of control

Nc1nc(N)c(N)c(Nc2ccc(Cl)cc2)n1
T/C [16]: 101 % of control
T/C [18]: 101 % of control

Nc1c(C(=O)O)cccc1C(=O)O
T/C [10]: 98 % of control
T/C [22]: 110 % of control
T/C [11]: 107 % of control
T/C [23]: 108 % of control
T/C [12]: 107 % of control
T/C [24]: 96 % of control

O=C1NC(=O)C2C3C=CC(C12)C1C2C(=O)NC(=O)C2C31 (stereo not drawn)
T/C (dose: 12.5 mg/kg/injection, schedule: Q01DX009 (ip), vehicle: saline with Tween-80): 102 % of control
T/C (dose: 25.0 mg/kg/injection, schedule: Q01DX009 (ip), vehicle: saline with Tween-80): 95 % of control
T/C (dose: 50.0 mg/kg/injection, schedule: Q01DX009 (ip), vehicle: saline with Tween-80): 111 % of control
T/C [10]: 178 % of control
T/C [12]: 90 % of control
